Tested on: Bovine chondrocytes
Assay: Viability of isolated chondrocytes suspended 12 hrs at 37° C. in various solutions (membrane integrity dyes)
Format: cell-based
Settings: bupivacaine 1.25 mg/mL [0.125%]
Experimental: FIG. 7: Bovine chondrocytes suspended for 12 hrs. at 37° C. in various solutions of phosphate buffered saline (PBS), bupivacaine (1.25 mg/mL [0.125%]), arthroguard and saline. In these experiments, 2.5 mg/mL [0.25%] bupivacaine was combined with arthroguard to yield a final concentration of 1.25 mg/mL [0.125%] bupivacaine in arthroguard. for 12 hrs. Cell viability is assessed by membrane integrity dyes.

## CCCCN1CCCCC1C(=O)Nc1c(C)cccc1C (stereo not shown) [bupivicaine, bupivacaine]
  amount of cell death of isolated chondrocytes exposed to bupivicaine: increases the amount of cell death

From patent US9095617B2, “Surgical adjuvant composition and associated methods of use” (Soteria Industries, Inc., priority 2010, dated 2015)
